These molecules were tested against T1, Replicase polyprotein 1ab (Severe acute respiratory syndrome coronavirus 2, UniProt P0DTD1) (assay: Inhibition of SARS-CoV-2 Main protease using Dabcyl-KLSAVLQSGFRKM-Edans-NH2 as substrate incubated for 30 mins by FRET based enzymatic assay).

SMILES | IC50 [nM]
COCCn1cc(-c2cc(-c3cnn(CCO)c3)cc([C@@H](C)NC(=O)c3cc(OCCN(C)C)ccc3C)c2)cn1 | 100
Cc1ccc(OCCN(C)C)cc1C(=O)N[C@H](C)c1cc(-c2cnn(CCO)c2)cc(-c2cnn(CCN(C)C)c2)c1 | 140
Cc1ccc(OCCN(C)C)cc1C(=O)N[C@H](C)c1cc(-c2cnn(C(F)F)c2)cc(-c2cnn(C3CC3)c2)c1 | 90
Cc1ccc(OCCN(C)C)cc1C(=O)N[C@H](C)c1cc(-c2cnn(CC(F)(F)F)c2)cc(-c2cccs2)c1 | 70
Cc1ccc(OCCN(C)C)cc1C(=O)N[C@H](C)c1cc(-c2cnn(CCO)c2)cc(-c2cccs2)c1 | 110
Cc1ccc(OCCN(C)C)cc1C(=O)N[C@H](C)c1cc(-c2ccn(C)n2)cc(-c2ccn(C3CC3)n2)c1 | 120
Cc1ccc(OCCN(C)C)cc1C(=O)N[C@H](C)c1cc(-c2cn[nH]c2)cc(-c2cccs2)c1 | 80
Cc1ccc(OCCN(C)C)cc1C(=O)N[C@H](C)c1cc(-c2cnn(C(F)F)c2)cc(-c2cccs2)c1 | 70
Cc1ccc(OCCN(C)C)cc1C(=O)N[C@H](C)c1cc(-c2cnn(C(C)C)c2)cc(-c2cnn(C(F)F)c2)c1 | 160
COCCn1cc(-c2cc(-c3cnn(C(F)F)c3)cc([C@@H](C)NC(=O)c3cc(OCCN(C)C)ccc3C)c2)cn1 | 110
Cc1ccc(OCCN(C)C)cc1C(=O)N[C@H](C)c1cc(-c2cnn(C)c2)cc(-c2cccs2)c1 | 150
Cc1ccc(OCCN(C)C)cc1C(=O)N[C@H](C)c1cc(-c2cnn(CCO)c2)cc(-c2ccnn2C)c1 | 140
Cc1ccc(OCCN(C)C)cc1C(=O)N[C@H](C)c1cc(-c2cnn(C(C)C)c2)cc(-c2ccn(C)n2)c1 | 110
Cc1ccc(OCCN(C)C)cc1C(=O)N[C@H](C)c1cc(-c2cnn(CCO)c2)cc(-c2cnn(C(F)F)c2)c1 | 90
COCCn1cc(-c2cc(-c3cccs3)cc([C@@H](C)NC(=O)c3cc(OCCN(C)C)ccc3C)c2)cn1 | 110
Cc1ccc(OCCN(C)C)cc1C(=O)N[C@H](C)c1cc(-c2cnn(CCN3CCOCC3)c2)cc(-c2cccs2)c1 | 60
Cc1ccc(OCCN(C)C)cc1C(=O)N[C@H](C)c1cc(-c2cnn(CC3CCOCC3)c2)cc(-c2ccn(C)n2)c1 | 80

SMILES | IC50 [nM]
Cc1ccc(OCCN(C)C)cc1C(=O)N[C@H](C)c1cc(-c2cnn(CCN(C)C)c2)cc(-c2cccs2)c1 | 110
Cc1ccc(OCCN(C)C)cc1C(=O)N[C@H](C)c1cc(-c2ccc(N3CCOCC3)nc2)cc(-c2cnn(C)c2)c1 | 80
Cc1ccc(OCCN(C)C)cc1C(=O)N[C@H](C)c1cc(-c2ccn(C)n2)cc(-c2ccn(C)n2)c1 | 140
Cc1ccc(OCCN(C)C)cc1C(=O)N[C@H](C)c1cc(-c2cnn(CCO)c2)cc(-c2ccc(CN3CCCC3)s2)c1 | 70
Cc1ccc(OCCN(C)C)cc1C(=O)N[C@H](C)c1cc(-c2cnn(C)c2)cc(-c2cnn(CC(N)=O)c2)c1 | 70
Cc1ccc(OCCN(C)C)cc1C(=O)N[C@H](C)c1cc(-c2cnn(C)c2)cc(-c2cnn(CCO)c2)c1 | 90
CC(=O)n1cc(-c2cc(-c3cnn(C)c3)cc([C@@H](C)NC(=O)c3cc(OCCN(C)C)ccc3C)c2)cn1 | 110
COCCn1cc(-c2cc(-c3cncs3)cc([C@@H](C)NC(=O)c3cc(OCCN(C)C)ccc3C)c2)cn1 | 110
COCCn1cc(-c2cc(-c3cnn(CC(N)=O)c3)cc([C@@H](C)NC(=O)c3cc(OCCN(C)C)ccc3C)c2)cn1 | 90
COCCn1cc(-c2cc(-c3cnn(CC(F)F)c3)cc([C@@H](C)NC(=O)c3cc(OCCN(C)C)ccc3C)c2)cn1 | 200
Cc1ccc(OCCN(C)C)cc1C(=O)N[C@H](C)c1cc(-c2cnn(CC(N)=O)c2)cc(-c2cccs2)c1 | 80
Cc1ccc(OCCN(C)C)cc1C(=O)N[C@H](C)c1cc(-c2cnn(C)c2)cc(-c2cnn(CC3CCOCC3)c2)c1 | 70
COCCn1cc(-c2cc(-c3ccn(C)n3)cc([C@@H](C)NC(=O)c3cc(OCCN(C)C)ccc3C)c2)cn1 | 90
Cc1ccc(OCCN(C)C)cc1C(=O)N[C@H](C)c1cc(-c2ccc(N3CCOCC3)nc2)cc(-c2cccs2)c1 | 90
Cc1ccc(OCCN(C)C)cc1C(=O)N[C@H](C)c1cc(-c2cnn(C(F)F)c2)cc(-c2ccn(C)n2)c1 | 90
Cc1ccc(OCCN(C)C)cc1C(=O)N[C@H](C)c1cc(-c2ccc3cnn(C)c3c2)cc(-c2cnn(C)c2)c1 | 130
Cc1ccc(OCCN(C)C)cc1C(=O)N[C@H](C)c1cc(-c2cnn(C)c2)cc(-c2ccc(CN3CCOCC3)o2)c1 | 120

Each molecule was assayed against T1, Replicase polyprotein 1ab (assay: Inhibition of SARS-CoV-2 papain-like protease (PLpro) by enzymatic assay).

SMILES | IC50 [nM]
Cc1ccc(OCCN(C)C)cc1C(=O)N[C@H](C)c1cc(-c2ccoc2)cc(-c2ccoc2)c1 | 80
Cc1ccc(OCCN(C)C)cc1C(=O)N[C@H](C)c1cc(-c2ccco2)cc(-c2ccco2)c1 | 200
CCn1nccc1-c1cc(-c2ccnn2CC)cc([C@@H](C)NC(=O)c2cc(OCCN(C)C)ccc2C)c1 | 440
Cc1ccc(-c2cc(-c3ccc(C)s3)cc([C@@H](C)NC(=O)c3cc(OCCN(C)C)ccc3C)c2)s1 | 140
Cc1ccc(OCCN(C)C)cc1C(=O)N[C@H](C)c1cc(-c2cnn(C(F)F)c2)cc(-c2cnn(C(F)F)c2)c1 | 170
COc1ncc(-c2cc(-c3cnc(OC)nc3)cc([C@@H](C)NC(=O)c3cc(OCCN(C)C)ccc3C)c2)cn1 | 1950
Cc1ccc(OCCN(C)C)cc1C(=O)N[C@H](C)c1cc(-c2ccc(O)cc2)cc(-c2ccc(O)cc2)c1 | 160
CCn1ccc(-c2cc(-c3cnn(COC)c3)cc([C@@H](C)NC(=O)c3cc(OCCN(C)C)ccc3C)c2)n1 | 240
Cc1ccc(OCCN(C)C)cc1C(=O)N[C@H](C)c1cc(-c2ccsc2)cc(-c2ccsc2)c1 | 100
Cc1ccc(OCCN(C)C)cc1C(=O)N[C@H](C)c1cc(-c2ccccc2)cc(-c2ccccc2)c1 | 103
COCCn1cc(-c2cc(-c3cnn(CCOC)c3)cc([C@@H](C)NC(=O)c3cc(OCCN(C)C)ccc3C)c2)cn1 | 180
CCn1ccc(-c2cc(-c3ccn(C(F)F)n3)cc([C@@H](C)NC(=O)c3cc(OCCN(C)C)ccc3C)c2)n1 | 400
CCn1ccc(-c2cc(-c3cnn(CC(F)F)c3)cc([C@@H](C)NC(=O)c3cc(OCCN(C)C)ccc3C)c2)n1 | 230
Cc1ccc(OCCN(C)C)cc1C(=O)N[C@H](C)c1cc(-c2cncs2)cc(-c2cncs2)c1 | 100
CCn1ccc(-c2cc(-c3ccn(C)n3)cc([C@@H](C)NC(=O)c3cc(OCCN(C)C)ccc3C)c2)n1 | 330
Cc1ccc(OCCN(C)C)cc1C(=O)N[C@H](C)c1cc(-c2ccnn2C)cc(-c2ccnn2C)c1 | 460
CCn1ccc(-c2cc(-c3cnn(C4COC4)c3)cc([C@@H](C)NC(=O)c3cc(OCCN(C)C)ccc3C)c2)n1 | 260
Cc1ccc(OCCN(C)C)cc1C(=O)N[C@H](C)c1cc(-c2cnn(CCO)c2)cc(-c2cnn(CCO)c2)c1 | 160
Cc1ccc(OCCN(C)C)cc1C(=O)N[C@H](C)c1cc(-c2c(C)noc2C)cc(-c2c(C)noc2C)c1 | 400
CCn1ccc(-c2cc(-c3cnn(C(F)F)c3)cc([C@@H](C)NC(=O)c3cc(OCCN(C)C)ccc3C)c2)n1 | 320
CCn1ccc(-c2cc(-c3cnn(CC(F)(F)F)c3)cc([C@@H](C)NC(=O)c3cc(OCCN(C)C)ccc3C)c2)n1 | 270
CCn1ccc(-c2cc(-c3ccn(CC(F)F)n3)cc([C@@H](C)NC(=O)c3cc(OCCN(C)C)ccc3C)c2)n1 | 220

Reference: ChEMBL document CHEMBL6092147, “Design of inhibitors of SARS-CoV-2 papain-like protease deriving from GRL0617: Structure-activity relationships” (Bioorg Med Chem, 2024)
